pEC50: −log10 of the molar value.
Assays:
[1] = system: A549 CD19+ tumor spheroids; assay: Rescue of chronically stimulated anti-CD19 CAR T cells rechallenged with A549 CD19+ tumor spheroids; format: cell-based, human
Experimental: Anti-CD19 CAR-expressing T cell compositions (containing CD4+ and CD8+ T cells combined at a 1:1 ratio) were generated from three different healthy donors substantially as described in Example 14. To subject cells to chronic stimulation conditions, the CAR+ T cells were incubated with plate-bound anti-idiotypic (anti-ID) antibody (see e.g. WO2018/023100), and incubated at 37° C. for a period of 6 days. […] The A549 CD19+tumor spheroids were labeled with a dye to permit monitoring of tumor cell lysis by microscopy during the assay. Freshly thawed anti-CD19 CAR-expressing T cells that had not been subjected to the chronic stimulatory conditions were incubated with the spheroids in parallel as controls. Cells were assessed at various times for cytolytic function, CAR T cell number and cytokine production.

anti-CD19 CAR T cells = assay: RNA-seq of CAR T cells sorted from tumor spheroids, Compound 1 after chronic stimulation; format: cell-based, human; conditions: 0.1 μM and 1 μM after chronic stimulation
Experimental: Gene expression analysis of CAR T cells sorted from tumor spheroids 5 days after co-culture was analyzed by RNA sequencing (RNA-seq) on the complementary DNA (cDNA) samples prepared from the RNA isolated from the long-term stimulated CAR-expressing T cells or on CAR-expressing T cells that had not undergone the long-term stimulation. […] Differential locus selection cut off was q<0.05 and absolute log 2 fold change>0.5 for RNA-seq.

[2] = system: Raji lymphoma tumor cells; assay: Raji-ffluc tumor xenograft model, CAR-expressing T cells in combination with Compound 1; format: in vivo, NSG mice
Experimental: The anti-tumor efficacy of CAR-expressing T cells in combination with 3-(5-amino-2-methyl-4-oxo-4H-quinazolin-3-yl)-piperidine-2,6-dione (Compound 1) was assessed by monitoring tumors in a tumor xenograft model. Anti-CD19 CAR-expressing T cell compositions, containing CD4+ and CD8+ T cells combined at a 1:1 ratio, were generated substantially as described in Example 14. T cell compositions were generated from three different donors.
NOD.Cg.Prkdc^scidIL2rg^tmlWjl/SzJ (NSG) mice were injected intravenously (i.v.) with 0.5×10^6 Raji lymphoma tumor cells (an immortalized human B lymphocyte tumor cell line that expresses CD19) that were transfected with firefly luciferase (Raji-ffluc). Tumor engraftment was allowed to occur for 6 days and verified using bioluminescence imaging. On Day 7, mice either received no treatment, or a single intravenous (i.v.) injection of anti-CD19 CAR-expressing cells at a low dose (0.5×10^6 cells) or a high dose (1.0×10^6 cells). […] Tumor burden was assessed by bioluminescence every 10 days. For bioluminescence imaging, mice received intraperitoneal (i.p.) injections of luciferin substrate (CaliperLife Sciences, Hopkinton, MA) resuspended in PBS (15 μg/g body weight). The average radiance (p/s/cm^2/sr) was determined. Survival of mice treated as described above were assessed and compared until day 100 post-infusion of CAR-expressing T cells.

[3] = system: CD19 directed CAR-expressing T cells; assay: Antigen-dependent cytokine production by CD19 directed CAR-expressing T cells; format: cell-based, human; conditions: compared to vehicle control or equimolar concentrations of lenalidomide
Excerpt: […]. […] Data represents the mean+/−S.D. across 3 experiments.

[4] = system: BCMA-expressing RPMI-8226 MM cells; assay: Rescue of chronically stimulated anti-BCMA CAR T cells rechallenged with RPMI-8226 MM cells; format: cell-based; conditions: 1 nm or 10 nM during rechallenge
Experimental: Studies were undertaken to determine whether Compound 2 rescued anti-BCMA CAR T cell function following chronic stimulation. To directly stimulate via CAR engagement to induce chronic stimulation of cells, anti-BCMA CAR T cells were stimulated with BCMA conjugated beads (diameter about 4.5 pm from a 50 μg/ml BCMA-conjugated bead composition, generated as described in Example 9) at a ratio of T cells to beads of 1:1. The cells were then incubated at 37° C., 5% CO2 for 7 days.
Cultures were incubated at 37° C., 5% CO2, and images were taken every 2 hours over 5-7 days with an Essen IncuCyte Zoom live-cell analysis system to track NucLightRed-positive target cells.

anti-BCMA CAR T cells = assay: Proliferation and expansion of anti-BCMA CAR T cells stimulated with BCMA-conjugated beads; format: cell-based, human; conditions: 5 μM
Experimental: To further assess proliferation, the cells containing anti-BCMA CAR-expressing T cells were labeled with the proliferation marker dye CELLTRACE VIOLET (CTV; ThermoFisher Scientific, Waltham MA) in accordance with the manufacturer's protocol prior to incubation with the BCMA-conjugated beads. Proliferation was assessed by dye dilution using flow cytometry on cells that were stimulated with beads from the 50 μg/mL BCMA-conjugated bead composition.
Four days and seven days after addition of BCMA-conjugated beads, the incubated cells were stained with CD4 or CD8 and with an anti-EGFR antibody to determine the percentage of cells positive for EGFRt as a surrogate for CAR+ T cells.

RPMI-8226 [5] = system: RPMI-8226
Excerpt: T cells were isolated by immunoaffinity-based enrichment from leukapheresis samples from healthy donors. Isolated cells were transduced with a viral vector encoding one of various exemplary anti-BCMA CARs. Each anti-BCMA CAR contained a human anti-BCMA scFv, a spacer region, a CD28 transmembrane domain, a 4-1BB-derived intracellular co-signaling sequence, and a CD3-zeta derived intracellular signaling domain. The viral vector construct further encoded a truncated EGFR (EGFRt), which served as a surrogate marker for CAR expression; the EGFRt-coding region was separated from the CAR sequence by a T2A skip sequence. After transduction, cells were expanded and the resulting compositions were frozen by cryopreservation.
The target RPMI-8226 cells were labeled with NucLight Red (NLR) to permit their tracking by microscopy. […] Normalized target cell numbers were generated by dividing target cell counts to cell counts at the start of each culture.
The studies above were extended on anti-BCMA CAR+ T cells generated from cells from two additional healthy donors. […] Cytolytic activity and cytokine production (IFNγ, IL-2 and TNF-α) were assayed substantially as described above. Absolute changes in cytokine levels relative to the vehicle control were calculated. Experiments were performed 2 to 3 times in each donor.

RPMI-8226 [6] = assay: 7-day prestimulation of anti-BCMA CAR-T cells on BCMA beads, phenotype and re-challenge with RPMI-8226; format: cell-based, human
Experimental: Expression of CD25, PD-1, Tim3 and Lag3 on CAR T cells (using an antibody for surrogate CAR marker) cultured under the different conditions then was assessed by flow cytometry.
Percentage killing was normalized to anti-BCMA CAR T cells prestimulated on beads in the presence of vehicle. Cytokine production was assessed by ELISA from supernatant following culture with target cells for 24 hours. Experiments were performed twice in 3 donors. […] P values were obtained by likelihood ratio tests comparing the full model with the effect of interest against the model without the effect of interest.

K562-CD19 cells = assay: Cytolytic activity of serially restimulated anti-CD19 CAR+ T cells against K562-CD19 cells; format: cell-based, human; conditions: 1 μM, 2nd and 4th restimulation
Experimental: Cells from each condition were plated in triplicate. Representative cell killing observed at the 2nd and 4th restimulation for both donors is shown in FIG. 18A (as normalized to K562—CD19-Nuc-labeled cells at t=0) or in FIG. 18B (% cell killing compared to vehicle only control (set at 100%)).

Cc1nc2cccc(N)c2c(=O)n1C1CCC(=O)NC1=O (stereo not drawn) [Compound 1, 3-(5-amino-2-methyl-4-oxo-4H-quinazolin-3-yl)-piperidine-2,6-dione]
pEC50 ([1]; Homo sapiens, chronically stimulated CAR-T cells, A549 CD19+ spheroids, read-out: EC50 for effect on tumor volume reduction): 6.90
numbers of CAR-T cells ([1]; day 5, 1 μM, fresh and chronically stimulated CAR-T cells): increase expansion and/or survival of CAR-T cells
cytokine production (IFN-γ, IL-2, TNF-α) ([1]; day 5, long-term stimulated CAR-expressing T cells): increased relative to co-cultures containing vehicle control
antigen-specific cytokine production and tumor reduction by chronically stimulated CAR-T cells ([1]; rescue treatment): restore antigen-specific cytokine production and tumor reduction
expression of genes associated with a hypofunctional, exhausted state (anti-CD19 CAR T cells): partial reversal of expressed genes
tumor burden compared to CAR-expressing cells alone ([2]; 0.3 mg/kg i.p. once a day, Concurrent and Delayed groups): reduce tumor burden
percent survival compared to anti-CD19 CAR-T cells only ([2]; delayed or concurrent, low and high CAR-T dose): greater percent survival
levels of IFNγ and IL-2 [3]: increased levels

O=C1CC[C@H](N2Cc3c(OCc4ccc(CN5CCOCC5)cc4)cccc3C2=O)C(=O)N1 [Compound 2, (S)-3-[4-(4-morpholin-4-ylmethyl-benzyloxy)-1-oxo-1,3-dihydro-isoindol-2-yl]-piperidine-2,6-dione]
cytolytic activity of chronically stimulated anti-BCMA CAR T cells ([4]; 0.3:1 E:T): improvement in cytolytic activity
production of IFN-gamma, IL-2 or TNF-alpha ([4]; 24 hours): increased production

Nc1cccc2c1CN(C1CCC(=O)NC1=O)C2=O (stereo not drawn) [lenalidomide, 3-(4-amino-1-oxo-1,3-dihydro-2H-isoindol-2-yl)piperidine-2,6-dione]
extent of CAR+ T cell expansion (EGFRt+) (anti-BCMA CAR T cells): did not substantially impact
total cell count at day 7 (anti-BCMA CAR T cells; 50 μg beads): small increase in proliferation
target cell killing by anti-BCMA CAR+ T cells by day 6 (RPMI-8226 [5]; 1 μM or 10 μM, E:T 0.3:1, vs absence of lenalidomide): greater degree of target cell killing
treatment effect on CAR T cytolytic activity in co-culture with RPMI-8226 (RPMI-8226 [5]; three healthy donors and one IMiD-refractory patient): donor-dependent
percentage of PD-1+ cells in the CD4+ population (RPMI-8226 [6]; 1 μM): decrease
cytolytic function of prestimulated CAR-T cells (RPMI-8226 [6]; 1 μM during the prestimulation period): preserved
cytokine production of prestimulated CAR-T cells (RPMI-8226 [6]; 1 μM during the prestimulation period, vs vehicle): trend toward increased cytokine production
total cell count (RPMI-8226 [6]; 1 μM, 7 days on BCMA beads): did not alter
CAR+ viability (RPMI-8226 [6]; 1 μM, 7 days on BCMA beads, 3 healthy donors): significantly increased
percentage positive for Lag3 expression (RPMI-8226 [6]; 1 μM, CD4+ and CD8+ CAR+ populations): increased
CD25 in CD4+ and CD8+ CAR+ populations (RPMI-8226 [6]; 1 μM, all donors): increased
PD-1 expression of BCMA-CAR-T cells (RPMI-8226 [6]; 1 μM, prolonged stimulation): reduced
surface expression of Tim3 in the CD8+ population (RPMI-8226 [6]; 1 μM, three donors): increased
anti-CD19 CAR+ T cell cytolytic activity (K562-CD19 cells): decrease

Reference: US20250186503A1, “METHODS AND COMBINATIONS FOR TREATMENT AND T CELL MODULATION” (Juno Therapeutics, Inc., priority 2018, published 2025)
